Measurements reported in patent publication US20200215204A1, “EARLY-ONSET PARKINSON'S DISEASE MODEL: (D331Y) PLA2G6 KNOCKIN MODEL, PLATFORM AND METHOD FOR DRUG SCREENING, AND KIT OF DETECTION” (Chang Gung Memorial Hospital, Linkou, priority 2019, published 2020).

What was measured:
[1] = tested on: PD patients carrying PLA2G6 mutations; conditions: cited from earlier work
[2] = tested on: PLA2G6^D331Y/D331Y knockin mice; test: Locomotor activity in open field boxes after L-DOPA in homozygous (D331Y) PLA2G6 knockin mice; assay type: in vivo; conditions: about 1.5 mg/kg; homozygous PLA2G6^D331Y/D331Y knockin mouse at about 9 months old
Experimental: Behavioral Assessments The locomotor activity of WT or (D331Y) PLA2G6 KI mice were evaluated in open field boxes for 60 minutes. Movements of animal were recorded and assessed with the TopScan video tracking system (Clever Sys., Inc.). The locomotor activity of mouse was examined by measuring the velocity and distance. To evaluate the therapeutic benefit of L-DOPA in PLA2G6^D331Y/D331Y mice, benserazide (0.5 mg/kg) and L-DOPA (1.5 mg/kg) were intraperitoneally administered into animal. The locomotor activity was recorded 40 min after the injection.

[3] = tested on: MPTP-induced mice model of PD; conditions: 25 mg/kg for 21 days; MPTP-induced mice model of PD (Zhao T. T. et al.); cited from earlier work

In the case of N[C@@H](Cc1ccc(O)c(O)c1)C(=O)O [L-DOPA], the “effectiveness in treating patients” value [1] is given as “effective”, the “symptoms of motor deficit” value [2] is given as “significantly improve symptoms of said motor deficit” and the therapeutic effect [3] is given as “significant therapeutic effect”.
